Test results reported in US7479507B2, “Anti-inflammatory substituted phenols and elastomeric compositions for oral delivery of drugs” (priority 2003, dated 2009).

How the values were obtained:
[1] = tested on: dogs diagnosed with arthritis or chronic or degenerative joint disease; assay: Owner-reported mobility of dogs with arthritis or chronic or degenerative joint disease, daily oral dosing, placebo-controlled; assay type: in vivo, dog
Method: The experiments below were performed on dogs after the informed consent of their owners was obtained. […] The specified compound was administered orally once a day with the dog's meal. […] The owners reported weekly any change in the ability of their dog to stand up, walk, run, climb and descend stairs, get on and off a bed, sofa, or chair, get into and out of a car, their limping and behavior.

rat [2] = conditions: cited from earlier work
Chinese hamster = conditions: cited from earlier work
rat [3] = conditions: cited from earlier work; remark: listed apart in the source
rats = conditions: >2.35 mg/l air aerosol, mostly (~80%) particles smaller than 7 μm; cited from earlier work
carp = conditions: 0.3-3 ppm; cited from earlier work

Question: With `CC(C(=O)O)c1ccc2c(c1)[nH]c1ccc(Cl)cc12` (stereo not shown) [Rimadyl®, reference compound] as the compound, how does the “change in dog's condition” value ([1]; Example 9, 85 lb Labrador retriever, arthritis of the hips, Rimadyl alone before Compound 1) read?
Answer: slightly improved the dog's condition

Question: What does the source list for “calcium salt of the monoethyl ester of (((3,5-bis(1,1-dimethylethyl)-4-hydroxyphenyl)methyl) phosphonic acid [Compound 1]”?
Answer: oral LD50 (rat [2]): exceeds 6000 mg/kg; oral LD50 (Chinese hamster): exceeds 2000 mg/kg; intraperitoneal LD50 (rat [3]): 662 mg/kg; deaths after 4 hour inhalation (rats): no deaths; change in dog's condition ([1]; Example 7, 33 lb Kelpie-mix, about 10 mg daily oral capsule, 4th week): condition continued to improve; change in dog's condition ([1]; Example 7, 33 lb Kelpie-mix, about 10 mg daily oral capsule, after 2 weeks): moved smoothly, had less difficulty getting out of the car or off the sofa, ran better and more often, and was more active; change in dog's condition ([1]; Example 7, 33 lb Kelpie-mix, about 10 mg daily oral capsule, after 3 weeks): freely getting off the bed, down from the sofa and out of the car; change in dog's condition ([1]; Example 7, 33 lb Kelpie-mix, arthritis of shoulders and elbow, about 10 mg daily oral capsule, after 1 week): got down the sofa and out of the car more easily; change in dog's condition ([1]; Example 8, 13 lb miniature Poodle, about 10 mg daily oral capsule, after 3 weeks): ran frequently and jumped up on the sofa without hesitation; change in dog's condition ([1]; Example 8, 13 lb miniature Poodle, about 10 mg daily oral capsule, after 4 weeks): climbing and running freely; change in dog's condition ([1]; Example 8, 13 lb miniature Poodle, unknown disease, about 10 mg daily oral capsule, after two weeks): climbed stairs with less hesitation and ran occasionally; change in dog's condition ([1]; Example 9, 85 lb Labrador retriever, about 15 mg Compound 1 daily capsule and Rimadyl, after 1 week): stood up without assistance and limped less; change in dog's condition ([1]; Example 9, 85 lb Labrador retriever, about 15 mg Compound 1 daily capsule and Rimadyl, after 3 weeks): started to move faster, then to run; change in dog's condition ([1]; Example 9, 85 lb Labrador retriever, about 15 mg Compound 1 daily capsule and Rimadyl, after two weeks): moved faster and was not bothered by its hips; change in dog's condition ([1]; Example 9, 85 lb Labrador retriever, about 15 mg Compound 1 daily capsule, Rimadyl discontinued, 4th week): got up and moved rapidly with ease and it's running improved; change in dog's condition ([1]; Example 11, 62 lb Australian cattle dog, about 10 mg Compound 1 daily capsule, after 2 weeks): stood well, limped less, and climbed the 3 stairs to and from the house; change in dog's condition ([1]; Example 11, 62 lb Australian cattle dog, about 10 mg Compound 1 daily capsule, after 3 weeks): trotted and climbed 5 stairs; change in dog's condition ([1]; Example 11, 62 lb Australian cattle dog, about 10 mg Compound 1 daily capsule, after 4 weeks): condition was further improved; change in dog's condition ([1]; Example 11, 62 lb Australian cattle dog, after 5 months untreated, about 10 mg Compound 1 daily capsule, after one week): stood longer, walked, and enjoyed the outdoors; number of dogs for which improvement was evident ([1]; of 5 dogs given Compound 1): 4 dogs; bioconcentration (accumulation) (carp): No bioconcentration (accumulation) was detected
